Results reported in patent US6071896A, “Suppression of thromboxane levels by percutaneous administration of aspirin” (Gundersen Clinic, Ltd., priority 1998, dated 2000).
Values joined by “and” are separate entries in the source; they are usually repeats but may differ in a detail not shown here. Equal entries are not always repeated.

Key:
[1] = Hemoccults, gastrointestinal symptoms and side effects, Example 1; type: in vivo, human; details: 5 volunteers, topical aspirin
Text: (§1) Five healthy adult volunteers (3 male, 2 female) were studied. Each refrained from ingesting oral aspirin for two weeks prior to study. Prior to treatment in accordance with the present invention, baseline thromboxane levels and hemoccults were obtained.
(§2) After base levels of thromboxane had been measured, the aspirin solution was first applied on the morning of Day 1 to the skin of the human subjects within an hour of mixing by rubbing the aspirin solution on the arms and/or chest of the subject. The application was repeated with freshly prepared solution for each of four additional mornings (Days 2-5) in the same manner. Between applications the subjects followed their normal schedule of bathing and showering. Eight hours after the fifth application (on Day 5) blood was drawn for salicylate levels and thromboxane levels to be determined. With one subject, blood was drawn for TXA2 levels every day just before application of a new aspirin solution (i.e., approximately 24 hours after application of the previous aspirin solution). Hemoccults were also tested.

[2] = tested on: gastric mucosa; details: cited from earlier work
[3] = tested on: thromboxane-B2; assay: Thromboxane (thromboxane-B2) blood levels after topical aspirin, Example 1; type: in vivo, human
Experimental: as §1
Thromboxane levels were measured by assaying for blood levels of thromboxane-B2 in accordance with the method described in Braden et al., Circulation 82:178 (1990). Thromboxane levels can also be measured in either blood or urine according to known methods which include those without limitation disclosed in the following references: Hirsh et al., supra; Robertson et al., N. Engl. J. Med. 304:998 (1981); Pedersen et al., N. Engl. J. Med. 311:1206 (1984); Patrignani et al., J. Clin. Invest. 69:1366 (1982); Preston et al., 304:76 (1981); Hirsh et al., N. Engl. J. Med. 304:685 (1981).
A preparation of aspirin in isopropyl alcohol and propylene glycol was prepared by mixing "Aspirsol"™ topical aspirin (NDC54102-001-01; commercially available from TERRI Pharmaceuticals, Inc., PO Box 6454, Kingwood, Tex. 77325) in accordance with the package instructions except that 8 ml instead of 10 ml of the suspending solution was used. The resulting solution contained approximately 9% aspirin rather than the 7-8% indicated on the package label.
as §2
Two of the subjects continued daily application for another five days (total ten days). For Days 6 and 7, aspirin solutions freshly prepared as described above were used. Beginning with Day 8, a different aspirin preparation was used. This second preparation was prepared by crushing aspirin tablets containing approximately 975 mg aspirin to form a powder. The powder was then formed into a paste with approximately 2 ml of distilled water. This paste was then mixed with 4 ml propylene glycol and 4 ml ethanol to produce approximately 10 ml of a cloudy solution. This cloudy solution was then filtered to remove excipients and other insoluble material found in the crushed aspirin tablets. After filtering, approximately 10 ml of a clear solution was obtained which contained approximately 9% aspirin. 8 ml of the resulting solution was used in each application. This second solution was applied to the two continuing subjects as previously described. Salicylate and thromboxane levels were checked after the tenth day.

[4] = Plasma aspirin and salicylate after dermal aspirin (NICI-GCMS), Example 4; type: in vivo, human; details: dermal aspirin 750 mg, single application
Experimental: (§3) The preservation of vascular cyclooxygenase is consistent with the low bioavailability of the dermal aspirin. Plasma aspirin and salicylate were determined using a highly sensitive assay that can measure levels of <0.1 ng/ml. Following oral aspirin 325 mg or 162 mg, peak plasma aspirin levels were 2.0 and 1.3 ug/ml, respectively. In contrast, following dermal aspirin, plasma levels peaked at 237±114 ng/ml and plasma salicylate peaked at 788±114 ng/ml.
Aspirin was applied in a dose of 750 mg on one limb over a 15 min interval. Samples were drawn from the opposite arm. Blood was withdrawn into heparin (10 U/ml final concentration) and potassium fluoride (5% final concentration), the latter to prevent ex vivo metabolism of aspirin by plasma esterases. The plasma was separated immediately and stored at […] until analyzed. Aspirin and its metabolite, salicylic acid, were measured by NICI-GCMS using deuterium-labelled analogues as internal standards, as previously described [Clark, supra].

[5] = Plasma aspirin levels following oral aspirin; type: in vivo; details: human
Experimental: as §3

[6] = patients with rheumatic diseases
[7] = Subject 1, baseline 401, about 24 h after previous application

CC(=O)Oc1ccccc1C(=O)O [aspirin, acetyl salicylic acid]
Gastrointestinal symptoms or other side effects [1]: No gastrointestinal symptoms or other side effects were noted or reported
Hemoccults [1]: negative
Gastric mucosa damage, occult bleeding ([2]; applied topically to gastrointestinal tissue): damages gastric mucosa and induces occult gastrointestinal bleeding
Effects on gastric mucosa ([2]; intravenous/parenteral vs oral): less pronounced with parenteral than with oral administration
Bleeding ([2]; oral diluted solutions vs similar doses in tablet form): considerably less bleeding than similar doses in tablet form
Erythema of the gastric mucosa [2, 6]: approximately 80 % of patients
Gastric erosions [2, 6]: approximately 40 % of patients
Gastric ulcer [2, 6]: 15 % of patients
Decrease in thromboxane levels after five daily applications ([3]; Day 5, subject 3 not considered): at least 50%
Thromboxane level, Day 3 [3, 7]: 250 ng/cc
Thromboxane level, Day 4 [3, 7]: 199 ng/cc
Thromboxane level, Day 5, prior to the Day 5 dose ([3]; Subject 1, baseline 401, morning of Day 5): 105 ng/cc
Thromboxane level, Day 2 ([3]; Subject 1, baseline 401, topical aspirin ~9% solution daily, about 24 h after previous application): 311 ng/cc
Thromboxane level, Day 10 ([3]; two subjects continuing to ten daily applications, subject 1 baseline 401, subject 2 baseline 372): 18 ng/cc and 12 ng/cc
Suppression of thromboxane levels by Day 10 ([3]; two subjects, ten daily applications): 95% and 97%
Plasma aspirin up to three hours [4]: barely detectable
concentration at 24 h ([4]; human, plasma, topical or ocular): 4 ± 3 ng/mL
Cmax ([4]; human, plasma, topical or ocular, read-out: Plasma aspirin, about 3 h (peak)): 237 ± 114 ng/mL
concentration at 6 h ([4]; human, plasma, topical or ocular, read-out: Plasma aspirin, six hours): 52 ± 14 ng/mL
Cmax ([5]; oral aspirin 75 mg, read-out: Levels following oral aspirin): 1000 to 2000 ng/mL
Cmax ([5]; oral aspirin 162 mg, read-out: Peak plasma aspirin level): 1300 ng/mL
Cmax ([5]; oral aspirin 325 mg, read-out: Peak plasma aspirin level): 2000 ng/mL
